As a reminder, the Kd is the free concentration of one partner at which half of the binding sites on the other are occupied at equilibrium, for simple one-to-one binding.

The target of one test is T1, ChREBP (ChREBPα) (Mus musculus, UniProt Q99MZ3).
T1 sequence (Q99MZ3 43-307): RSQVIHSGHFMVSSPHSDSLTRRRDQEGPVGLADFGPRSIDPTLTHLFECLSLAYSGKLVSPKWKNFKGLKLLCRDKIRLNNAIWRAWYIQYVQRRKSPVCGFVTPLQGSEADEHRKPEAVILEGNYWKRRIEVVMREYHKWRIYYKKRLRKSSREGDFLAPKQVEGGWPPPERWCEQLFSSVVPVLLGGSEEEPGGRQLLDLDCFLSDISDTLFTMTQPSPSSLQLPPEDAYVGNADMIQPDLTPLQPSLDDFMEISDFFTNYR
In words: isothermal titration calorimetry, purified refolded GSM domain, […] °C.
Conditions: not given
It is filed as binding. On the technique in general: ITC needs no label: the signal is the heat of the interaction.
For `O=C(CO)COP(=O)(O)O` [DHAP, dihydroxyacetone phosphate], binding was characterised by a dissociation constant (Kd) of 453 µM.

The test is the same for the next values; noted with them: read-out: Kd ± SD.
Regarding `O=P(O)(O)OC[C@H]1OC(O)(COP(=O)(O)O)[C@@H](O)[C@@H]1O` (stereo partly shown) [F1,6BP, fructose-1,6-bisphosphate], the Kd turned out to be 250 µM.

For the compound `O=C(CO)[C@@H](O)[C@H](O)[C@H](O)COP(=O)(O)O` [F6P], the Kd worked out at 131 µM.

Regarding `O=P(O)(O)OCC(O)CO` (stereo not shown) [G3P, glycerol-3-phosphate], the Kd turned out to be 17 µM.

With `O=P(O)(O)OC[C@H]1OC(O)[C@H](O)[C@@H](O)[C@@H]1O` (stereo partly shown) [G6P, glucose-6-phosphate], the equilibrium dissociation constant (Kd) was found to be 64.3 µM.

Consider `O=CC(O)COP(=O)(O)O` (stereo not shown) [GA3P, glyceraldehyde-3-phosphate], for which the Kd was determined as 221 µM.

As for `OC[C@H]1OC(O)[C@H](O)[C@@H](O)[C@@H]1O` (stereo partly shown) [Glc, glucose], the Kd came out at 270 µM.

The record behind these values is PMC11703153 (bioRxiv, 2025).
